Measurements taken from patent US8497289B2, “3.1.0 bicyclic GlyT1 inhibitors and methods of making and using same” (Vanderbilt University, priority 2008, dated 2013).

Target: T1, GlyT1 (Homo sapiens, UniProt P48067)
T1 construct: Human placental choriocarcinoma cells endogenously expressing GlyT1; host or cells: JAR cells (human placental choriocarcinoma)
T1 sequence (P48067 1-706): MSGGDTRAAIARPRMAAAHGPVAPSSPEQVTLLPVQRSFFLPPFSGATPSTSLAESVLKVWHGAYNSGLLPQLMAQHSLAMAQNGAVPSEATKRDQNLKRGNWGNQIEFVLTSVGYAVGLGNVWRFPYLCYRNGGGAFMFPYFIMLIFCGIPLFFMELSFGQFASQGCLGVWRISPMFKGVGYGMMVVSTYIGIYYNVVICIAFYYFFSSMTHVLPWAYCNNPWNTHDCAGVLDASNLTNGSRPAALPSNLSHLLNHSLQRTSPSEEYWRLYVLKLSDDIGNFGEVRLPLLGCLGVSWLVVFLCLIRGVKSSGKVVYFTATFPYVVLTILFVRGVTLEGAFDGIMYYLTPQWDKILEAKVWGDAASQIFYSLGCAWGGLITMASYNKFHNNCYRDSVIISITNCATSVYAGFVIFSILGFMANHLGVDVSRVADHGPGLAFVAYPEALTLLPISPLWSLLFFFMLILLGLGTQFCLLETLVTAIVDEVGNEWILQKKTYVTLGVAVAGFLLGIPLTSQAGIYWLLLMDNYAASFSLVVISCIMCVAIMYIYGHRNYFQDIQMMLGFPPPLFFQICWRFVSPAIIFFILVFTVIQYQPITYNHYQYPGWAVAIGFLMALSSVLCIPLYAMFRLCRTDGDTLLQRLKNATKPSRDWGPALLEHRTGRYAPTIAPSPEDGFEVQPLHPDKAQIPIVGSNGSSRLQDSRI
Test: [14C]-glycine uptake in JAR cells (scintillation proximity, Cytostar T plates)
Assay type: cell-based
Settings: read-out: Potency
Description: Human placental choriocarcinoma cells endogenously expressing GlyT1 can be cultured using standard conditions. Cells can then be grown at 37° C. in a humidified atmosphere 40-48 hours before the assay. Culture medium can be removed from the culture plate, and cells can be incubated with an amount of TB1A buffer with or without the compounds of the present invention for a sufficient period of time. Then an amount of [^14C]-glycine diluted with TB1A can be added to each well. After incubation the microplates can be sealed and counted. Non-specific uptake of [^14C]-glycine can be determined in the presence of unlabeled glycine. To determine potencies, a range of concentrations of the compounds of the present invention can be added to the cells, followed by the fixed concentration of [^14C]-glycine. The concentration of the present compound that inhibited half of the specific uptake of [^14C]glycine (IC50 value) can be determined from the assay data by non-linear curve fitting.
The procedure used was analogous to that disclosed in Williams, J. B.; Mallorga P. J.; Lemaire W.; Williams D. L.; Na S.; Patel S.; Conn J. P.; Pettibone D. J.; Austin C.; Sur C.; “Development of a scintillation proximity assay for analysis of Na+/Cl−-dependent neurotransmitter transporter activity,” ANAL. BIOCHEM.
Cells were plated at a density of 1.3×10^4 cells/well and grown at 37° C. in a humidified atmosphere of 5% CO2 for 40-48 h. Culture medium was removed from the Cytostar T plate and JAR cells were incubated with 30 μl of TB1A buffer (120 mM NaCl, 2 mM KCl, 1 mM CaCl2, 1 mM MgCl2, 10 mM Hepes, 5 mM L-alanine, pH 7.5 adjusted with 1 M Tris base) with or without multiple concentrations of test compound (added at 2× final concentration) for 1 min. Then 30 μl of [^14C]-glycine (Perkin-Elmer) diluted in TB1A was added to each well to give a final concentration of 10 μM. Cytostar T plates were then incubated in the dark at room temperature for 3 h, sealed with opaque white bottom plate seals (Perkin-Elmer) and clear top plate seals (Topseal A, Perkin-Elmer), and were counted on a Top Count (Packard). Glycine uptake was determined by measuring radioactivity in each well and plotted as a function of concentration of test compound. […] Nonspecific uptake of [^14C]-glycine was determined in the presence of 10 mM cold glycine. [^14C]-taurine (American Radiolabeled Chemicals, Inc.) uptake experiments were performed according to the same protocol except that 10 mM cold taurine was used to determine nonspecific uptake. […] COS-7 cells were transiently transfected with the human GlyT2 cDNA (Origene Technologies Inc., SC303452) using Fugene 6 (Roche) according to the manufacturer's instructions in Dulbecco's modified Eagle's medium (DMEM, Invitrogen) containing 10% Fetal Bovine Serum, 10 mM HEPES, 1 mM sodium pyruvate, penicillin (100 μg/ml), and streptomycin (100 μg/ml). The following day, the cells were plated at a density of 5×10^5 cells/well in Cytostar T plates and maintained at 37° C. in a humidified atmosphere of 5% CO2 for 24 h. GlyT2 glycine uptake experiments were performed according to the same protocol previously described.

| IC50 [nM] | Structure (SMILES) |
| --- | --- |
| > 20000 | CCS(=O)(=O)N1CC2C(C1)C2(CNC(=O)c1ccc(Cl)cc1Cl)c1ccccn1 (stereo not drawn) [Compound 12b] |
| 1020 | O=C(NCC1(CC2CC2)C2CN(S(=O)(=O)CC3CC3)CC21)c1ccc(F)cc1F (stereo not drawn) [Compound 9i] |
| 1020 | O=C(NCC1(CC2CC2)C2CN(S(=O)(=O)CC3CC3)CC21)c1c(F)cccc1F (stereo not drawn) [Compound 9j] |
| 100 | Cn1cnc(S(=O)(=O)N2CC3C(C2)C3(CNC(=O)c2cc(Cl)cc(Cl)c2)CC2CC2)c1 (stereo not drawn) [Compound 6i] |
| 4 | Cn1cnc(S(=O)(=O)N2CC3C(C2)C3(CNC(=O)c2c(F)cccc2F)CC2CC2)c1 (stereo not drawn) [Compound 6e] |
| 4.1 | Cn1cnc(S(=O)(=O)N2CC3C(C2)C3(CNC(=O)c2ccc(Cl)cc2Cl)CC2CC2)c1 (stereo not drawn) [Compound 6a, 2,4-dichloro-N-((6-(cyclopropylmethyl)-3-(1-methyl-1H-imidazol-4-ylsulfonyl)-3-azabicyclo[3.1.0]hexan-6-yl)methyl)benzamide] |
| 1300 | CCS(=O)(=O)N1CC2C(C1)C2(CNC(=O)c1ccc(Cl)cc1Cl)CC1CC1 (stereo not drawn) [Compound 8a] |
| 629 | O=C(NCC1(CC2CC2)C2CN(S(=O)(=O)CC3CC3)CC21)c1ccc(C(F)(F)F)cc1 (stereo not drawn) [Compound 9h] |
| 4500 | CCCS(=O)(=O)N1CC2C(C1)C2(CNC(=O)c1cccc(C(F)(F)F)c1)CC1CC1 (stereo not drawn) [Compound 9d] |
| 688 | O=C(NCC1(CC2CC2)C2CN(S(=O)(=O)CC3CC3)CC21)c1ccccc1C(F)(F)F (stereo not drawn) [Compound 9g] |
| > 20000 | Cn1cc(S(=O)(=O)N2CC3C(C2)C3(CNC(=O)c2ccc(Cl)cc2Cl)c2ccccn2)cn1 (stereo not drawn) [Compound 12e] |
| 32 | Cn1cnc(S(=O)(=O)N2CC3C(C2)C3(CNC(=O)c2ccc(Cl)cc2)CC2CC2)c1 (stereo not drawn) [Compound 6c] |
| 507 | CCCS(=O)(=O)N1CC2C(C1)C2(CNC(=O)c1ccc(F)cc1Cl)CC1CC1 (stereo not drawn) [Compound 9f] |
| 231 | O=C(NCC1(CC2CC2)C2CN(S(=O)(=O)CC3CC3)CC21)c1ccc(Cl)cc1Cl (stereo not drawn) [Compound 8d, 2,4-Dichloro-N-((6-(cyclopropylmethyl)-3-(cyclopropylmethylsulfonyl)-3-azabicyclo[3.1.0]hexan-6-yl)methyl)benzamide] |
| 119 | Cn1cnc(S(=O)(=O)N2CC3C(C2)C3(CNC(=O)c2cccc(Cl)c2)CC2CC2)c1 (stereo not drawn) [Compound 6j] |
| > 20000 | CS(=O)(=O)N1CC2C(C1)C2(CNC(=O)c1ccc(Cl)cc1Cl)c1ccccn1 (stereo not drawn) [Compound 12a] |
| 64 | Cn1cnc(S(=O)(=O)N2CC3C(C2)C3(CNC(=O)c2cccc(C(F)(F)F)c2)CC2CC2)c1 (stereo not drawn) [Compound 6g] |

| IC50 [nM] | Structure (SMILES) |
| --- | --- |
| > 20000 | O=C(NCC1(c2ccccn2)C2CN(S(=O)(=O)c3ccccn3)CC21)c1ccc(Cl)cc1Cl (stereo not drawn) [Compound 12g] |
| > 20000 | O=C(NCC1(c2ccccn2)C2CN(S(=O)(=O)c3ccccc3)CC21)c1ccc(Cl)cc1Cl (stereo not drawn) [Compound 12f] |
| 3400 | CC(C)S(=O)(=O)N1CC2C(C1)C2(CNC(=O)c1ccc(Cl)cc1Cl)CC1CC1 (stereo not drawn) [Compound 8c] |
| 190 | Cn1cnc(S(=O)(=O)N2CC3C(C2)C3(CNC(=O)c2ccccc2C(F)(F)F)c2ccccn2)c1 (stereo not drawn) [Compound 13b, 2-Trifluoromethyl-N-((6-(pyridin-2-yl)-3-(1-methyl-1H-imidazol-4-ylsulfonyl)-3-azabicyclo[3.1.0]hexan-6-yl)methyl)benzamide] |
| 240 | Cn1cnc(S(=O)(=O)N2CC3C(C2)C3(CNC(=O)c2ccc(Cl)cc2Cl)c2ccccn2)c1 (stereo not drawn) [Compound 12d, 2,4-dichloro-N-((3-(1-methyl-1H-imidazol-4-ylsulfonyl)-6-(pyridine-2-yl)-3-azabicyclo[3.1.0]hexan-6-yl)methyl)benzamide] |
| 2100 | CCCS(=O)(=O)N1CC2C(C1)C2(CNC(=O)c1ccccc1F)CC1CC1 (stereo not drawn) [Compound 9a] |
| 5 | Cn1cnc(S(=O)(=O)N2CC3C(C2)C3(CNC(=O)c2ccccc2C(F)(F)F)CC2CC2)c1 (stereo not drawn) [Compound 6f] |
| 82 | Cn1cnc(S(=O)(=O)N2CC3C(C2)C3(CNC(=O)c2ccc(Cl)c(Cl)c2)CC2CC2)c1 (stereo not drawn) [Compound 6d] |
| 1850 | CCCS(=O)(=O)N1CC2C(C1)C2(CNC(=O)c1ccc(Cl)cc1)CC1CC1 (stereo not drawn) [Compound 9c] |
| 361 | CCCS(=O)(=O)N1CC2C(C1)C2(CNC(=O)c1ccc(Cl)cc1Cl)CC1CC1 (stereo not drawn) [Compound 8b] |
| 1100 | CCCS(=O)(=O)N1CC2C(C1)C2(CNC(=O)c1ccc(C(F)(F)F)cc1)CC1CC1 (stereo not drawn) [Compound 9e] |
| > 20000 | CCCS(=O)(=O)N1CC2C(C1)C2(CNC(=O)c1ccc(Cl)cc1Cl)c1ccccn1 (stereo not drawn) [Compound 12c] |
| 457 | Cn1cnc(S(=O)(=O)N2CC3C(C2)C3(CNC(=O)c2ccccc2Cl)c2ccccn2)c1 (stereo not drawn) [Compound 13a] |
| 1200 | CCCS(=O)(=O)N1CC2C(C1)C2(CNC(=O)c1ccccc1Cl)CC1CC1 (stereo not drawn) [Compound 9b] |
| 18.6 | Cn1cnc(S(=O)(=O)N2CC3C(C2)C3(CNC(=O)c2ccccc2Cl)CC2CC2)c1 (stereo not drawn) [Compound 6b] |
| 44 | Cn1cnc(S(=O)(=O)N2CC3C(C2)C3(CNC(=O)c2ccc(F)cc2F)CC2CC2)c1 (stereo not drawn) [Compound 6h] |
